Results taken from ChEMBL document CHEMBL1949543, “Synthesis and evaluation of novel monosubstituted sulfonylurea derivatives as antituberculosis agents” (Eur J Med Chem, 2012).
Converted amounts (≈) assume the structure as drawn.

Tests used:
[1] = test system: Mycobacterium tuberculosis; test: Antituberculosis activity against isoniazid-, rifampin-,streptomycin-resistant Mycobacterium tuberculosis isolate E; assay type: functional
[2] = test system: Mycobacterium tuberculosis; test: Antituberculosis activity against isoniazid-resistant Mycobacterium tuberculosis isolate C; assay type: functional
[3] = Selectivity ratio of IC50 for human THP1 cells to MIC for isoniazid-, rifampin-,ethambutol-resistant Mycobacterium tuberculosis isolate G; assay type: functional, THP-1
[4] = Selectivity ratio of IC50 for human THP1 cells to MIC for INH-resistant Mycobacterium tuberculosis isolate C; assay type: functional, THP-1
[5] = Selectivity ratio of IC50 for human THP1 cells to MIC for isoniazid-, rifampin-, amikacin-, OLF-resistant Mycobacterium tuberculosis isolate J; assay type: functional, THP-1
[6] = test system: Mycobacterium tuberculosis; test: Antituberculosis activity against isoniazid-resistant Mycobacterium tuberculosis isolate B; assay type: functional
[7] = Selectivity ratio of IC50 for human THP1 cells to MIC for isoniazid-, rifampin-, amikacin-, OLF-resistant Mycobacterium tuberculosis isolate H; assay type: functional, THP-1
[8] = test system: Mycobacterium tuberculosis; test: Antituberculosis activity against isoniazid-, rifampin-,kanamycin-,OLF-resistant Mycobacterium tuberculosis isolate I; assay type: functional
[9] = Selectivity ratio of IC50 for human THP1 cells to MIC for INH-resistant Mycobacterium tuberculosis isolate B; assay type: functional, THP-1
[10] = Selectivity ratio of IC50 for human THP1 cells to MIC for isoniazid-, rifampin-resistant Mycobacterium tuberculosis isolate D; assay type: functional, THP-1
[11] = Selectivity ratio of IC50 for human THP1 cells to MIC for isoniazid-, rifampin-,streptomycin-resistant Mycobacterium tuberculosis isolate E; assay type: functional, THP-1
[12] = Selectivity ratio of IC50 for human THP1 cells to MIC for isoniazid-, rifampin-,ethambutol-resistant Mycobacterium tuberculosis isolate F; assay type: functional, THP-1
[13] = test system: Mycobacterium tuberculosis; test: Antituberculosis activity against isoniazid-, rifampin-, amikacin-, OLF-resistant Mycobacterium tuberculosis isolate J; assay type: functional
[14] = test system: Mycobacterium tuberculosis; test: Antituberculosis activity against isoniazid-, rifampin-,ethambutol-resistant Mycobacterium tuberculosis isolate G; assay type: functional
[15] = test system: Mycobacterium tuberculosis; test: Antituberculosis activity against isoniazid-, rifampin-, amikacin-, OLF-resistant Mycobacterium tuberculosis isolate H; assay type: functional
[16] = test system: Mycobacterium tuberculosis; test: Antituberculosis activity against isoniazid-, rifampin-resistant Mycobacterium tuberculosis isolate D; assay type: functional
[17] = test system: Mycobacterium tuberculosis; test: Antituberculosis activity against isoniazid-, rifampin-,ethambutol-resistant Mycobacterium tuberculosis isolate F; assay type: functional
[18] = Selectivity ratio of IC50 for human THP1 cells to MIC for isoniazid-, rifampin-,kanamycin-,OLF-resistant Mycobacterium tuberculosis isolate I; assay type: functional, THP-1

SMILES | MIC [1] [µg/mL] | MIC [2] [µg/mL] | Selectivity ratio [3] | Selectivity ratio [4] | Selectivity ratio [5] | MIC [6] [µg/mL] | Selectivity ratio [7] | MIC [8] [µg/mL] | Selectivity ratio [9] | Selectivity ratio [10] | Selectivity ratio [11] | Selectivity ratio [12] | MIC [13] [µg/mL] | MIC [14] [µg/mL] | MIC [15] [µg/mL] | MIC [16] [µg/mL] | MIC [17] [µg/mL] | Selectivity ratio [18]
COc1ccnc(NC(=O)NS(=O)(=O)c2cc(NC(=O)CCl)ccc2Cl)n1 | 10 (≈ 23 µM) | 10 (≈ 23 µM) | 10 | 10 | 10 | 10 (≈ 23 µM) | 10 | 10 (≈ 23 µM) | 10 | 10 | 10 | 10 | 10 (≈ 23 µM) | 10 (≈ 23 µM) | 10 (≈ 23 µM) | 10 (≈ 23 µM) | 10 (≈ 23 µM) | 10
Cc1ccnc(NC(=O)NS(=O)(=O)c2cc(NC(=O)CCl)ccc2Cl)n1 | 10 (≈ 23.9 µM) | 10 (≈ 23.9 µM) | 10 | 10 | 10 | 10 (≈ 23.9 µM) | 10 | 10 (≈ 23.9 µM) | 10 | 10 | 10 | 10 | 10 (≈ 23.9 µM) | 10 (≈ 23.9 µM) | 10 (≈ 23.9 µM) | 10 (≈ 23.9 µM) | 10 (≈ 23.9 µM) | 10
